From patent US8658604B2, “Template-fixed beta-hairpin peptidomimetics with protease inhibitory activity” (Polyphor Ltd, priority 2005, dated 2014)
Where a SMILES comes first, the peptide text is derived from it.

Columns and labels:
[1] = target: T1, Elastase from human neutrophils (Homo sapiens, UniProt P08246); test: Enzymatic assay, elastase; details: Elastase IC50
T1 sequence (P08246 30-267): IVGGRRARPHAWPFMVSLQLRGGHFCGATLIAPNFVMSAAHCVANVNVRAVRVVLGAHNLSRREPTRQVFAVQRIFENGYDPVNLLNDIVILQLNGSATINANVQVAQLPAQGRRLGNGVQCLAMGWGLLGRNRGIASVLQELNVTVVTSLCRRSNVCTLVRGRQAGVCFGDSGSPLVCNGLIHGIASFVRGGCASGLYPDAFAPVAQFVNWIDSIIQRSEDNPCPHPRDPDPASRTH

[2] = target: T2, CathepsinG, from human neutrophils (Homo sapiens, UniProt P08311); test: Enzymatic assay, cathepsin G; details: Cathepsin G IC50
T2 sequence (P08311 21-244): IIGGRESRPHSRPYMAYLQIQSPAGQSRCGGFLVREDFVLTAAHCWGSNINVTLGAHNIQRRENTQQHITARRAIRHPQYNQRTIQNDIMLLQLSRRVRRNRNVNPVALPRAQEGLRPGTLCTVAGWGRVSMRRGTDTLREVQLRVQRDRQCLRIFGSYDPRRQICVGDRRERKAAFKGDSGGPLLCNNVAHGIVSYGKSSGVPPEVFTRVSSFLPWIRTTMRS

[3] = target: Trypsin, from human pancreas (Homo sapiens, UniProt P07477); test: Enzymatic assay, trypsin
[4] = target: Chymotrypsin, from human pancreas (Homo sapiens, UniProt P17538); test: Enzymatic assay, chymotrypsin
[5] = tested on: Tryptase, from human lung; test: Enzymatic assay, tryptase; details: for IC50: read-out: Tryptase IC50

Sequence of Chymotrypsin, from human pancreas (P17538 19-263): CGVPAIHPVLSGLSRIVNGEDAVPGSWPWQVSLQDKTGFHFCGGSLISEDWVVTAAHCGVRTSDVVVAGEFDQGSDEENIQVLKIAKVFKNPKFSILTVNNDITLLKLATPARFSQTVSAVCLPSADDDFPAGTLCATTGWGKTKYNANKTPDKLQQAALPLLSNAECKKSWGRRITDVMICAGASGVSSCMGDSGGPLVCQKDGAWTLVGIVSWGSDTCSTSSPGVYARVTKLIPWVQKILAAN

SMILES	IC50 [1]	IC50 [2]	Trypsin at 100 μM % [3]	Chymotrypsin at 100 μM % [4]	IC50 [4]	Tryptase At 100 μM % ([5]; at 100 μM)	IC50 [5]	IC50 [3]
CC[C@H](C)[C@@H]1NC(=O)[C@@H]2CCCN2C(=O)[C@@H]2CCCN2C(=O)[C@H](CC(=O)O)NC(=O)[C@H](CO)NC(=O)[C@H](CCCCN)NC(=O)[C@H]([C@@H](C)O)NC(=O)[C@@H]2CSSC[C@H](NC1=O)C(=O)N[C@@H](CO)C(=O)N1CCC[C@@H]1C(=O)N1[C@@H](c3ccccc3)CC[C@H]1C(=O)N[C@@H](Cc1ccccc1)C(=O)N2 [Ex. 48] (HELM PEPTIDE1{C.S.[dP].[O=C([C@@H]1CC[C@H](c2ccccc2)N1[*:1])[*:2]].F.C.T.K.S.D.P.P.I}$PEPTIDE1,PEPTIDE1,1:R3-6:R3|PEPTIDE1,PEPTIDE1,1:R1-13:R2$$$V2.0)	> 100000 nM	83 nM	93%	3%				
CC[C@@H](C)[C@H]1NC(=O)[C@H](CO)NC(=O)[C@@H]2CSSC[C@H](NC(=O)[C@H](Cc3ccccc3)NC(=O)[C@@H]3CCCN3C1=O)C(=O)N[C@@H]([C@@H](C)O)C(=O)N[C@@H](CCCCN)C(=O)N[C@@H](CO)C(=O)N[C@@H](CC(=O)O)C(=O)N1CCC[C@H]1C(=O)N1CCC[C@H]1C(=O)N[C@@H]([C@@H](C)CC)C(=O)N2 [Ex. 50] (HELM PEPTIDE1{F.C.T.K.S.D.P.P.I.C.S.[dI].P}$PEPTIDE1,PEPTIDE1,2:R3-10:R3|PEPTIDE1,PEPTIDE1,1:R1-13:R2$$$V2.0)	> 100000 nM	89 nM	94%	0%				
CCCC[C@@H]1NC(=O)[C@@H]2CCCN2C(=O)[C@@H](Cc2ccccc2)NC(=O)[C@H](Cc2ccc(O)cc2)NC(=O)[C@@H]2CSSC[C@H](NC1=O)C(=O)N[C@@H]([C@@H](C)O)C(=O)N[C@@H](C)C(=O)N[C@@H](CO)C(=O)N[C@@H]([C@@H](C)CC)C(=O)N1CCC[C@H]1C(=O)N1CCC[C@H]1C(=O)N[C@@H](CCC(N)=O)C(=O)N2 [Ex. 116] (HELM PEPTIDE1{A.S.I.P.P.Q.C.Y.[dF].P.[Nle].C.T}$PEPTIDE1,PEPTIDE1,7:R3-12:R3|PEPTIDE1,PEPTIDE1,1:R1-13:R2$$$V2.0)	46 nM		0%		39700 nM			
CCCC[C@@H]1NC(=O)[C@@H]2CCCN2C(=O)[C@H]2CCCN2C(=O)[C@H](c2ccccc2)NC(=O)[C@@H]2CSSC[C@H](NC1=O)C(=O)N[C@@H]([C@@H](C)O)C(=O)N[C@@H](C)C(=O)N[C@@H](CO)C(=O)N[C@@H]([C@@H](C)CC)C(=O)N1CCC[C@H]1C(=O)N1CCC[C@H]1C(=O)N[C@@H](CCC(N)=O)C(=O)N2 [Ex. 136] (HELM PEPTIDE1{[Nle].C.T.A.S.I.P.P.Q.C.[Phg].[dP].P}$PEPTIDE1,PEPTIDE1,2:R3-10:R3|PEPTIDE1,PEPTIDE1,1:R1-13:R2$$$V2.0)				67.9%		0%		
CC[C@H](C)[C@@H]1NC(=O)[C@@H]2CCCN2C(=O)[C@H]2CCCN2C(=O)[C@H](CCCNC(=N)N)NC(=O)[C@@H]2CSSC[C@H](NC1=O)C(=O)N[C@@H]([C@@H](C)O)C(=O)N[C@@H](CCCCN)C(=O)N[C@@H](CO)C(=O)N[C@@H](CC(C)C)C(=O)N1CCC[C@H]1C(=O)N1CCC[C@H]1C(=O)N[C@@H](Cc1c[nH]cn1)C(=O)N2 [Ex. 187] (HELM PEPTIDE1{I.C.T.K.S.L.P.P.H.C.R.[dP].P}$PEPTIDE1,PEPTIDE1,2:R3-10:R3|PEPTIDE1,PEPTIDE1,1:R1-13:R2$$$V2.0)		158 nM					< 100 nM	39 nM
CC[C@H](C)[C@@H]1NC(=O)[C@@H]2CCCN2C(=O)[C@H]2CCCN2C(=O)[C@H](CCCNC(=N)N)NC(=O)[C@@H]2CSSC[C@H](NC1=O)C(=O)N[C@@H]([C@@H](C)O)C(=O)N[C@@H](CCCCN)C(=O)N[C@@H](CO)C(=O)N[C@@H](CC(C)C)C(=O)N1CCC[C@H]1C(=O)N1CCC[C@H]1C(=O)N[C@@H](CCC(N)=O)C(=O)N2 [Ex. 188] (HELM PEPTIDE1{I.C.T.K.S.L.P.P.Q.C.R.[dP].P}$PEPTIDE1,PEPTIDE1,2:R3-10:R3|PEPTIDE1,PEPTIDE1,1:R1-13:R2$$$V2.0)		105 nM					< 100 nM	34 nM
CC[C@H](C)[C@@H]1NC(=O)[C@@H]2CCCN2C(=O)[C@H]2CCCN2C(=O)[C@H](CCCNC(=N)N)NC(=O)[C@@H]2CSSC[C@H](NC1=O)C(=O)N[C@@H]([C@@H](C)O)C(=O)N[C@@H](CCCCN)C(=O)N[C@@H](CO)C(=O)N[C@@H](CC(C)C)C(=O)N1CCC[C@H]1C(=O)N1CCC[C@H]1C(=O)N[C@@H]([C@@H](C)O)C(=O)N2 [Ex. 189] (HELM PEPTIDE1{I.C.T.K.S.L.P.P.T.C.R.[dP].P}$PEPTIDE1,PEPTIDE1,2:R3-10:R3|PEPTIDE1,PEPTIDE1,1:R1-13:R2$$$V2.0)		164 nM					< 100 nM	39 nM
CC[C@H](C)[C@@H]1NC(=O)[C@@H]2CCCN2C(=O)[C@H]2CCCN2C(=O)[C@H](CCCCN)NC(=O)[C@@H]2CSSC[C@H](NC1=O)C(=O)N[C@@H]([C@@H](C)O)C(=O)N[C@@H](CCCCN)C(=O)N[C@@H](CO)C(=O)N[C@@H](CC(C)C)C(=O)N1CCC[C@H]1C(=O)N1CCC[C@H]1C(=O)N[C@@H](CCCNC(=N)N)C(=O)N2 [Ex. 190] (HELM PEPTIDE1{I.C.T.K.S.L.P.P.R.C.K.[dP].P}$PEPTIDE1,PEPTIDE1,2:R3-10:R3|PEPTIDE1,PEPTIDE1,1:R1-13:R2$$$V2.0)		1500 nM					< 100 nM	172 nM
CC(C)C[C@@H]1NC(=O)[C@@H]2CCCN2C(=O)[C@H]2CCCN2C(=O)[C@H](CCCNC(=N)N)NC(=O)[C@@H]2CSSC[C@H](NC1=O)C(=O)N[C@@H]([C@@H](C)O)C(=O)N[C@@H](CCCCN)C(=O)N[C@@H](CO)C(=O)N[C@@H](CC(C)C)C(=O)N1CCC[C@H]1C(=O)N1CCC[C@H]1C(=O)N[C@@H](CCCCN)C(=O)N2 [Ex. 191] (HELM PEPTIDE1{L.C.T.K.S.L.P.P.K.C.R.[dP].P}$PEPTIDE1,PEPTIDE1,2:R3-10:R3|PEPTIDE1,PEPTIDE1,1:R1-13:R2$$$V2.0)		400 nM					21 nM	66 nM
CCCC[C@@H]1NC(=O)[C@@H]2CCCN2C(=O)[C@H]2CCCN2C(=O)[C@H](CCCNC(=N)N)NC(=O)[C@@H]2CSSC[C@H](NC1=O)C(=O)N[C@@H]([C@@H](C)O)C(=O)N[C@@H](CCCCN)C(=O)N[C@@H](CO)C(=O)N[C@@H](CC(C)C)C(=O)N1CCC[C@H]1C(=O)N1CCC[C@H]1C(=O)N[C@@H](CCCCN)C(=O)N2 [Ex. 192] (HELM PEPTIDE1{[Nle].C.T.K.S.L.P.P.K.C.R.[dP].P}$PEPTIDE1,PEPTIDE1,2:R3-10:R3|PEPTIDE1,PEPTIDE1,1:R1-13:R2$$$V2.0)		650 nM					16 nM	72 nM
CC(C)C[C@@H]1NC(=O)[C@H](CO)NC(=O)[C@H](CCCCN)NC(=O)[C@H]([C@@H](C)O)NC(=O)[C@@H]2CSSC[C@H](NC(=O)[C@H](CCCCN)NC(=O)[C@@H]3CCCN3C(=O)[C@@H]3CCCN3C1=O)C(=O)N[C@@H](CCCNC(=N)N)C(=O)N1CCC[C@@H]1C(=O)N1CCC[C@H]1C(=O)N[C@@H](CC1CCCCC1)C(=O)N2 [Ex. 193] (HELM PEPTIDE1{[Cha].C.T.K.S.L.P.P.K.C.R.[dP].P}$PEPTIDE1,PEPTIDE1,2:R3-10:R3|PEPTIDE1,PEPTIDE1,1:R1-13:R2$$$V2.0)		431 nM					6 nM	35 nM
CC(C)C[C@@H]1NC(=O)[C@H](CO)NC(=O)[C@H](CCCCN)NC(=O)[C@H]([C@@H](C)O)NC(=O)[C@@H]2CSSC[C@H](NC(=O)[C@H](CCCCN)NC(=O)[C@@H]3CCCN3C(=O)[C@@H]3CCCN3C1=O)C(=O)N[C@@H](CCCNC(=N)N)C(=O)N1CCC[C@@H]1C(=O)N1CCC[C@H]1C(=O)N[C@@H](Cc1ccc(O)cc1)C(=O)N2 [Ex. 194] (HELM PEPTIDE1{Y.C.T.K.S.L.P.P.K.C.R.[dP].P}$PEPTIDE1,PEPTIDE1,2:R3-10:R3|PEPTIDE1,PEPTIDE1,1:R1-13:R2$$$V2.0)		1570 nM					9 nM	431 nM
CC(C)C[C@@H]1NC(=O)[C@H](CO)NC(=O)[C@H](CCCCN)NC(=O)[C@H]([C@@H](C)O)NC(=O)[C@@H]2CSSC[C@H](NC(=O)[C@H](CCCCN)NC(=O)[C@@H]3CCCN3C(=O)[C@@H]3CCCN3C1=O)C(=O)N[C@@H](CCCNC(=N)N)C(=O)N1CCC[C@@H]1C(=O)N1CCC[C@H]1C(=O)N[C@@H](Cc1c[nH]c3ccccc13)C(=O)N2 [Ex. 195] (HELM PEPTIDE1{W.C.T.K.S.L.P.P.K.C.R.[dP].P}$PEPTIDE1,PEPTIDE1,2:R3-10:R3|PEPTIDE1,PEPTIDE1,1:R1-13:R2$$$V2.0)		4000 nM					12 nM	108 nM
CC(C)C[C@@H]1NC(=O)[C@H](CO)NC(=O)[C@H](CCCCN)NC(=O)[C@H]([C@@H](C)O)NC(=O)[C@@H]2CSSC[C@H](NC(=O)[C@H](CCCCN)NC(=O)[C@@H]3CCCN3C(=O)[C@@H]3CCCN3C1=O)C(=O)N[C@@H](Cc1ccc(O)cc1)C(=O)N1CCC[C@@H]1C(=O)N1CCC[C@H]1C(=O)N[C@@H](CCCNC(=N)N)C(=O)N2 [Ex. 196] (HELM PEPTIDE1{R.C.T.K.S.L.P.P.K.C.Y.[dP].P}$PEPTIDE1,PEPTIDE1,2:R3-10:R3|PEPTIDE1,PEPTIDE1,1:R1-13:R2$$$V2.0)		2170 nM					52 nM	70 nM
